Source: patent publication US20130324530A1 (Novartis AG, priority 2010, published 2013)

Experiments:
[1] = tested on: neointima formation; settings: rats; cited from earlier work
[2] = target: Cdk9/cyclinT1 (Homo sapiens, UniProt P50750); experiment: Cdk9/CyclinT1 IMAP assay
Cdk9/cyclinT1, sequence (P50750 whole entry): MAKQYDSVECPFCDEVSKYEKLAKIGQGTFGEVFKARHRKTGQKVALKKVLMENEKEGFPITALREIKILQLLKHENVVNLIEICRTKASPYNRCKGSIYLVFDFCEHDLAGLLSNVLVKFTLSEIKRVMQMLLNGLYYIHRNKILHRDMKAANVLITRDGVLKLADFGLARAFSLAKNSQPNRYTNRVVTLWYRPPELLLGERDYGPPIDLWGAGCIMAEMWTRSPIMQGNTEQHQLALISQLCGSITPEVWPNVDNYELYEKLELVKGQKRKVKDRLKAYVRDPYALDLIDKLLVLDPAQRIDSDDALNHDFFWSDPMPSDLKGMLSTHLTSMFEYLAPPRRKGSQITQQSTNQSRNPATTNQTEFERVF
Cdk9/cyclinT1, sequence (O60563 whole entry partner): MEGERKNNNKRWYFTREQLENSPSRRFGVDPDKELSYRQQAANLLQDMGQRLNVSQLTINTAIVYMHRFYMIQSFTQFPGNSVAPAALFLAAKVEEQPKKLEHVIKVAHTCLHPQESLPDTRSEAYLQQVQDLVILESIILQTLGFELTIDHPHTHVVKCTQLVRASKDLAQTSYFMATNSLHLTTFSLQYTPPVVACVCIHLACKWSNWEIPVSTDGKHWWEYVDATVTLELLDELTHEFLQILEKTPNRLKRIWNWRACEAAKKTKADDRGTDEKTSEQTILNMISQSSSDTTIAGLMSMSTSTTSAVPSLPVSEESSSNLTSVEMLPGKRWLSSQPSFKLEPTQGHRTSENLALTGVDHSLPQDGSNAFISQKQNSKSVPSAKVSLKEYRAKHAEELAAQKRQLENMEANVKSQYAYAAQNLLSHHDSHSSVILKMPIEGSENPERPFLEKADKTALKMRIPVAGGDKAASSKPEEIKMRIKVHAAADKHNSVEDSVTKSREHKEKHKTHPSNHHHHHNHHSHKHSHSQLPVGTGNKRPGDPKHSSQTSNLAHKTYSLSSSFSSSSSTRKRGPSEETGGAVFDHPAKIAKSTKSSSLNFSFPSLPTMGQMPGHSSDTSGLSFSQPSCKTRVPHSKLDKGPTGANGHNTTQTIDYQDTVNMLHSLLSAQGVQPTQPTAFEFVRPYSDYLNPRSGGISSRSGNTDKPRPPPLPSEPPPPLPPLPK

| IC50 [2] [nM] | SMILES | inhibition of neointima formation [1] |
| --- | --- | --- |
| 325 | C[C@H](CO)Nc1cc(-c2cncc(NCC3CCOCC3)c2)c(Cl)cn1 [Compound 41] |  |
| < 8 | N[C@H]1CC[C@H](Nc2cc(-c3cncc(NCc4cccc(Cl)c4)c3)c(Cl)cn2)CC1 [Compound 42] |  |
| < 8 | Fc1cccc(CNc2cncc(-c3cc(NC4CCCC4)ncc3Cl)c2)c1 [Compound 48] |  |
| 10 | NCC(O)CNc1cc(-c2cncc(NCc3cccc(F)c3)c2)c(Cl)cn1 (stereo not shown) [Compound 50] |  |
| < 8 | N[C@H]1CC[C@H](Nc2cc(-c3cncc(NCc4ccccc4)c3)c(Cl)cn2)CC1 [Compound 51] |  |
| 35 | CS(=O)(=O)N1CCC(CNc2cncc(-c3cc(N[C@H]4CC[C@H](N)CC4)ncc3Cl)c2)CC1 [Compound 52] |  |
| < 8 | N[C@H]1CC[C@H](Nc2cc(-c3cnc(F)c(NCC4CCOCC4)c3)c(Cl)cn2)CC1 [Compound 55, N2′-(trans-4-aminocyclohexyl)-5′-chloro-6-fluoro-N5-((tetrahydro-2H-pyran-4-yl)methyl)-3,4′-bipyridine-2′,5-diamine] |  |
| 68 | Clc1cnc(NCC[C@H]2CCCNC2)cc1-c1cncc(NCC2CCOCC2)c1 [Compound 56] |  |
| 130 | OCC(CO)Nc1cc(-c2cncc(NCc3cccc(F)c3)c2)c(Cl)cn1 [Compound 59] |  |
| < 8 | NCCCNc1cc(-c2cncc(NCc3cccc(F)c3)c2)c(Cl)cn1 [Compound 60] |  |
| < 8 | NCCCCNc1cc(-c2cncc(NCc3cccc(F)c3)c2)c(Cl)cn1 [Compound 61] |  |
| 18 | N[C@H]1CC[C@H](Nc2cc(-c3cncc(NCC4CCOCC4)c3)c(Cl)cn2)CC1 [Compound 63, N2′-(trans-4-aminocyclohexyl)-5′-chloro-N5-((tetrahydro-2H-pyran-4-yl)methyl)-3,4′-bipyridine-2′,5-diamine] |  |
| < 8 | N[C@H]1CC[C@H](Nc2cc(-c3cncc(NCc4cc(F)cc(F)c4)c3)c(Cl)cn2)CC1 [Compound 64] |  |
| 1490 | Fc1cccc(CNc2cc(-c3cc(NC4CCCC4)ncc3Cl)cnc2N2CCOCC2)c1 [Compound 66] |  |
| 335 | C[C@@H](CO)Nc1cc(-c2cncc(NCC3CCOCC3)c2)c(Cl)cn1 [Compound 67] |  |
| 9 | Fc1cccc(CNc2cncc(-c3cc(NCC4CCOCC4)ncc3Cl)c2)c1 [Compound 70] |  |
| < 8 | N[C@H]1CC[C@H](Nc2cc(-c3cncc(NCc4ccncc4)c3)c(Cl)cn2)CC1 [Compound 71] |  |
| 7 | CO[C@H](CN[C@H]1CC[C@H](Nc2cc(-c3cc(NCC4CCOCC4)cnc3Cl)c(Cl)cn2)CC1)C(F)(F)F [Compound 72, 2,5′-dichloro-N5-((tetrahydro-2H-pyran-4-yl)methyl)-N2′-(trans-4-((R)-3,3,3-trifluoro-2-methoxypropylamino)cyclohexyl)-3,4′-bipyridine-2′,5-diamine] |  |
| 1 | O[C@H](CN[C@H]1CC[C@H](Nc2cc(-c3cc(NCC4CCOCC4)cnc3Cl)c(Cl)cn2)CC1)C(F)(F)F [Compound 74, (R)-3-(trans-4-(2,5′-dichloro-5-((tetrahydro-2H-pyran-4-yl)methyl)amino-3,4′-bipyridin-2′-ylamino)cyclohexylamino)-1,1,1-trifluoropropan-2-ol] |  |
| < 8 | N[C@H]1CC[C@H](Nc2cc(-c3cnc(Cl)c(NCC4CCOCC4)c3)c(Cl)cn2)CC1 [Compound 77, N2′-(trans-4-aminocyclohexyl)-5′,6-dichloro-N5-((tetrahydro-2H-pyran-4-yl)methyl)-3,4′-bipyridine-2′,5-diamine] |  |
| < 8 | COCCN[C@H]1CC[C@H](Nc2cc(-c3cnc(Cl)c(NCC4CCOCC4)c3)c(Cl)cn2)CC1 [Compound 78, 5′,6-dichloro-N2′-(trans-4-(2-methoxyethylamino)cyclohexyl)-N5-((tetrahydro-2H-pyran-4-yl)methyl)-3,4′-bipyridine-2′,5-diamine] |  |
| < 8 | COCCN[C@H]1CC[C@H](Nc2cc(-c3cncc(NCc4cccc(F)c4)c3)c(Cl)cn2)CC1 [Compound 82] |  |
| < 8 | O[C@H]1CC[C@H](Nc2cc(-c3cnc(Cl)c(NCC4CCOCC4)c3)c(Cl)cn2)CC1 [Compound 86] |  |
| 420 | N[C@H]1CC[C@H](Nc2cc(-c3cnc(O)c(NCC4CCOCC4)c3)c(Cl)cn2)CC1 [Compound 87, 2′-(trans-4-aminocyclohexylamino)-5′-chloro-5-((tetrahydro-2H-pyran-4-yl)methyl)amino-3,4′-bipyridin-6-ol] |  |
| < 1 | N[C@H]1CC[C@H](Nc2cc(-c3cncc(OCc4cccc(F)c4)c3)c(Cl)cn2)CC1 [Compound 88] |  |

Further lines, the compound ahead of its results:

| SMILES | IC50 [2] [nM] | inhibition of neointima formation [1] |
| --- | --- | --- |
| COc1ccc(CNc2nc(N(CCO)CCO)nc3c2ncn3C(C)C)cc1 [CVT-313] |  | greater than 80% |
| N[C@H]1CC[C@H](Nc2cc(-c3cncc(NCc4cc(F)ccc4F)c3)c(Cl)cn2)CC1 [Compound 43] | < 8 |  |
| N[C@H]1CC[C@H](Nc2cc(-c3cncc(NCc4cccc(F)c4)c3)ccn2)CC1 [Compound 44, N2′-(trans-4-aminocyclohexyl)-N5-(3-fluorobenzyl)-3,4′-bipyridine-2′,5-diamine] | < 8 |  |
| N[C@H]1CC[C@H](Nc2cc(-c3cnc(N4CCOCC4)c(NCc4cccc(F)c4)c3)c(Cl)cn2)CC1 [Compound 45] | 610 |  |
| O[C@H]1CC[C@H](Nc2cc(-c3cnc(N4CCOCC4)c(NCC4CCOCC4)c3)c(Cl)cn2)CC1 [Compound 46] | 1830 |  |
| Fc1cccc(CNc2cncc(-c3cc(NC4CC4)ncc3Cl)c2)c1 [Compound 47] | < 8 |  |
| Fc1cccc(CNc2cncc(-c3cc(NCC[C@H]4CCCNC4)ncc3Cl)c2)c1 [Compound 49] | < 8 |  |
| O[C@H]1CC[C@H](Nc2cc(-c3cnc(N4CCOCC4)c(NCc4cccc(F)c4)c3)c(Cl)cn2)CC1 [Compound 53] | 660 |  |
| O[C@H]1CC[C@H](Nc2cc(-c3cnc(F)c(NCC4CCOCC4)c3)c(Cl)cn2)CC1 [Compound 54] | < 8 |  |
| OCCCNc1cc(-c2cncc(NCC3CCOCC3)c2)c(Cl)cn1 [Compound 57] | 199 |  |
| COCCNc1cc(-c2cncc(NCC3CCOCC3)c2)c(Cl)cn1 [Compound 58] | 2260 |  |
| O[C@H]1CC[C@H](Nc2cc(-c3cncc(NCc4cccc(F)c4)c3)c(Cl)cn2)CC1 [Compound 62] | < 8 |  |
| Clc1cnc(N[C@H]2CC[C@H](NC[C@@H]3CCCO3)CC2)cc1-c1cc(NCC2CCOCC2)cnc1Cl [Compound 65] | < 8 |  |
| OCCNc1cc(-c2cncc(NCC3CCOCC3)c2)c(Cl)cn1 [Compound 68] | 820 |  |
| CN1CCC(CNc2cc(-c3cncc(NCc4cccc(F)c4)c3)c(Cl)cn2)CC1 [Compound 69] | < 8 |  |
| O[C@@H](CN[C@H]1CC[C@H](Nc2cc(-c3cc(NCC4CCOCC4)cnc3Cl)c(Cl)cn2)CC1)C(F)(F)F [Compound 73] | 2 |  |
| Clc1cnc(N[C@H]2CC[C@H](N3CCCC3)CC2)cc1-c1cc(NCC2CCOCC2)cnc1Cl [Compound 76, 2,5′-dichloro-N2′-(trans-4-(pyrrolidin-1-yl)cyclohexyl)-N5-((tetrahydro-2H-pyran-4-yl)methyl)-3,4′-bipyridine-2′,5-diamine] | 35 |  |
| N[C@H]1CC[C@H](Nc2cc(-c3cc(NCC4CCOCC4)cnc3Cl)c(Cl)cn2)CC1 [Compound 79] | < 8 |  |
| OC[C@H]1CC[C@H](Nc2cc(-c3cnc(Cl)c(NCC4CCOCC4)c3)c(Cl)cn2)CC1 [Compound 80] | < 8 |  |
| Clc1cnc(N[C@H]2CC[C@H](N3CCCC3)CC2)cc1-c1cnc(Cl)c(NCC2CCOCC2)c1 [Compound 81] | 45 |  |
| NC[C@H]1CC[C@H](Nc2cc(-c3cnc(Cl)c(NCC4CCOCC4)c3)c(Cl)cn2)CC1 [Compound 83] | < 8 |  |
| Fc1cccc(CNc2cncc(-c3cc(N[C@H]4CC[C@H](N5CCCC5)CC4)ncc3Cl)c2)c1 [Compound 84] | < 8 |  |
| COc1ncc(-c2cc(N[C@H]3CC[C@H](N)CC3)ncc2Cl)cc1NCC1CCOCC1 [Compound 85] | 96 |  |
| NC[C@H]1CC[C@H](Nc2cc(-c3cncc(OCc4cccc(F)c4)c3)c(Cl)cn2)CC1 [Compound 89] | < 1 |  |
| O[C@H]1CCCC[C@@H]1N[C@H]1CC[C@H](Nc2cc(-c3cc(NCC4CCOCC4)cnc3Cl)c(Cl)cn2)CC1 [Compound 90] | 2.8 |  |
| O[C@H]1CCCC[C@@H]1N[C@H]1CC[C@H](Nc2cc(-c3cnc(Cl)c(NCC4CCOCC4)c3)c(Cl)cn2)CC1 [Compound 91] | 2.7 |  |
| O[C@H]1CCCC[C@@H]1N[C@H]1CC[C@H](Nc2cc(-c3cnc(F)c(NCC4CCOCC4)c3)c(Cl)cn2)CC1 [Compound 92] | 1.8 |  |
